According to patent US9486506B2 (Novo Nordisk A/S, priority 2011, dated 2016):
Numbered stars: 1 amine (or outer) side, 2 acyl side, 3 side chain; on linkers, the order of the positions; unused ones are H or OH. Side chains are listed from the residue outwards. Peptide text beside a SMILES is read from it. * marks the point of attachment. C16 diacid = O=C(O)CCCCCCCCCCCCCCC(=O)*; γGlu = O=C(O)[C@H](CCC(=O)[*:2])N[*:1]; AEEA = NCCOCCOCC(=O)O

Biological target: T1, glucagon receptor (Homo sapiens, UniProt P47871)
T1 construct: expressed in transfected cells
T1 sequence (P47871 26-477): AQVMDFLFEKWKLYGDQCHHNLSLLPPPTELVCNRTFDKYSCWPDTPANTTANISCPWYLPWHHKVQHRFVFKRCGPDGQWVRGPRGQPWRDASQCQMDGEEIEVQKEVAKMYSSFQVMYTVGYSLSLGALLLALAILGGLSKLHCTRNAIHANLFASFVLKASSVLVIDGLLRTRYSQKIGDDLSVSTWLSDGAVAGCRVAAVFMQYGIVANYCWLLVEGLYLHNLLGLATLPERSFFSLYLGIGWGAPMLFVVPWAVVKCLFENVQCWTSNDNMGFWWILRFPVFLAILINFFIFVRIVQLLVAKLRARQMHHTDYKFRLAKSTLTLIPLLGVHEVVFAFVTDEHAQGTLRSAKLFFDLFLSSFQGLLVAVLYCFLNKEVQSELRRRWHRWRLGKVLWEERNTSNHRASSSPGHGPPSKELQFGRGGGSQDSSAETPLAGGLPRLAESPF
Assay: Assay (I) Glucagon activity (cAMP biosensor, FLIPR)
Format: cell-based

SMILES	EC50
CC(C)C[C@H](NC(=O)[C@H](CC(=O)O)NC(=O)[C@H](CC(C)C)NC(=O)[C@H](Cc1ccc(O)cc1)NC(=O)[C@H](CCCNC(=N)N)NC(=O)[C@H](CO)NC(=O)[C@H](Cc1ccc(O)cc1)NC(=O)[C@H](CC(=O)O)NC(=O)[C@H](CO)NC(=O)[C@@H](NC(=O)[C@H](Cc1ccccc1)NC(=O)[C@@H](NC(=O)CNC(=O)[C@H](CCC(N)=O)NC(=O)[C@H](CO)NC(=O)[C@@H](N)Cc1c[nH]cn1)[C@@H](C)O)[C@@H](C)O)C(=O)N[C@@H](CCCNC(=N)N)C(=O)N[C@@H](CCCNC(=N)N)C(=O)N[C@@H](C)C(=O)N[C@@H](CCC(N)=O)C(=O)N[C@@H](CC(=O)O)C(=O)N[C@@H](Cc1ccccc1)C(=O)N[C@H](C(=O)N[C@@H](CCCCNC(=O)CC[C@H](NC(=O)CC[C@H](NC(=O)CC[C@H](NC(=O)CC[C@H](NC(=O)CCCCCCCCCCCCCCC(=O)O)C(=O)O)C(=O)O)C(=O)O)C(=O)O)C(=O)N[C@@H](Cc1c[nH]c2ccccc12)C(=O)N[C@@H](CC(C)C)C(=O)N[C@@H](CC(C)C)C(=O)N[C@@H](CO)C(=O)N[C@H](C(=O)O)[C@@H](C)O)C(C)C [Example 74, N^ε24-[(4S)-4-carboxy-4-[[(4S)-4-carboxy-4-[[(4S)-4-carboxy-4-[[(4S)-4-carboxy-4-(15-carboxypentadecanoylamino)butanoyl]amino]butanoyl]amino]butanoyl]amino]butanoyl]-[Arg12,Leu16,Lys24,Leu27,Ser28]-Glucagon] (H-HSQGTFTSDYSRYLDLRRAQDFVK([γGlu-γGlu-γGlu-γGlu-C16 diacid])WLLST-OH)	0.109 nM
CC(C)C[C@H](NC(=O)[C@H](Cc1c[nH]c2ccccc12)NC(=O)[C@H](CCCCNC(=O)CC[C@H](NC(=O)CC[C@H](NC(=O)COCCOCCNC(=O)COCCOCCNC(=O)CC[C@H](NC(=O)CCCCCCCCCCCCCCC(=O)O)C(=O)O)C(=O)O)C(=O)O)NC(=O)[C@@H](NC(=O)[C@H](Cc1ccccc1)NC(=O)[C@H](CC(=O)O)NC(=O)[C@H](CCC(N)=O)NC(=O)[C@H](C)NC(=O)[C@H](CCCNC(=N)N)NC(=O)[C@H](CCCNC(=N)N)NC(=O)[C@@H](NC(=O)[C@H](CC(=O)O)NC(=O)[C@H](CC(C)C)NC(=O)[C@H](Cc1ccc(O)cc1)NC(=O)[C@H](CCCCN)NC(=O)[C@H](CO)NC(=O)[C@H](Cc1ccc(O)cc1)NC(=O)[C@H](CC(=O)O)NC(=O)[C@H](CO)NC(=O)[C@@H](NC(=O)[C@H](Cc1ccccc1)NC(=O)[C@@H](NC(=O)CNC(=O)[C@H](CCC(N)=O)NC(=O)[C@H](CO)NC(=O)[C@@H](N)Cc1c[nH]cn1)[C@@H](C)O)[C@@H](C)O)[C@@H](C)O)C(C)C)C(=O)N[C@@H](CC(C)C)C(=O)N[C@@H](CO)C(=O)N[C@H](C(=O)O)[C@@H](C)O [Example 81, N^ε24-[(4S)-4-carboxy-4-[[(4S)-4-carboxy-4-[[2-[2-[2-[[2-[2-[2-[[(4S)-4-carboxy-4-(15-carboxypentadecanoylamino)butanoyl]amino]ethoxy]ethoxy]acetyl]amino]ethoxy]ethoxy]acetyl]amino]butanoyl]amino]butanoyl]-[Thr16,Lys24,Leu27,Ser28]-Glucagon]	0.017 nM
CC(C)C[C@H](NC(=O)[C@H](Cc1c[nH]c2ccccc12)NC(=O)[C@H](CCCCNC(=O)CC[C@H](NC(=O)CC[C@H](NC(=O)COCCOCCNC(=O)COCCOCCNC(=O)CC[C@H](NC(=O)CCCCCCCCCCCCCCC(=O)O)C(=O)O)C(=O)O)C(=O)O)NC(=O)[C@@H](NC(=O)[C@H](Cc1ccccc1)NC(=O)[C@H](CC(=O)O)NC(=O)[C@H](CCC(N)=O)NC(=O)[C@H](C)NC(=O)[C@H](CCCNC(=N)N)NC(=O)[C@H](CCCNC(=N)N)NC(=O)[C@@H](NC(=O)[C@H](CC(=O)O)NC(=O)[C@H](CC(C)C)NC(=O)[C@H](Cc1ccc(O)cc1)NC(=O)[C@H](CCCNC(=N)N)NC(=O)[C@H](CO)NC(=O)[C@H](Cc1ccc(O)cc1)NC(=O)[C@H](CC(=O)O)NC(=O)[C@H](CO)NC(=O)[C@@H](NC(=O)[C@H](Cc1ccccc1)NC(=O)[C@@H](NC(=O)CNC(=O)[C@H](CCC(N)=O)NC(=O)[C@H](CO)NC(=O)[C@@H](N)Cc1c[nH]cn1)[C@@H](C)O)[C@@H](C)O)[C@@H](C)O)C(C)C)C(=O)N[C@@H](CC(C)C)C(=O)N[C@@H](CO)C(=O)N[C@H](C(=O)O)[C@@H](C)O [Example 82, N^ε24-[(4S)-4-carboxy-4-[[(4S)-4-carboxy-4-[[2-[2-[2-[[2-[2-[2-[[(4S)-4-carboxy-4-(15-carboxypentadecanoylamino)butanoyl]amino]ethoxy]ethoxy]acetyl]amino]ethoxy]ethoxy]acetyl]amino]butanoyl]amino]butanoyl]-[Arg12,Thr16,Lys24,Leu27,Ser28]-Glucagon] (H-HSQGTFTSDYSRYLDTRRAQDFVK([γGlu-γGlu-AEEA-AEEA-γGlu-C16 diacid])WLLST-OH)	0.025 nM
CC(C)C[C@H](NC(=O)[C@H](CC(=O)O)NC(=O)[C@H](CC(C)C)NC(=O)[C@H](Cc1ccc(O)cc1)NC(=O)[C@H](CCCNC(=N)N)NC(=O)[C@H](CO)NC(=O)[C@H](Cc1ccc(O)cc1)NC(=O)[C@H](CC(=O)O)NC(=O)[C@H](CO)NC(=O)[C@@H](NC(=O)[C@H](Cc1ccccc1)NC(=O)[C@@H](NC(=O)CNC(=O)[C@H](CCC(N)=O)NC(=O)[C@H](CO)NC(=O)[C@@H](N)Cc1c[nH]cn1)[C@@H](C)O)[C@@H](C)O)C(=O)N[C@@H](CCCNC(=N)N)C(=O)N[C@@H](CCCNC(=N)N)C(=O)N[C@@H](C)C(=O)N[C@@H](CCC(N)=O)C(=O)N[C@@H](CC(=O)O)C(=O)N[C@@H](Cc1ccccc1)C(=O)N[C@H](C(=O)N[C@@H](CCCCNC(=O)CC[C@H](NC(=O)CC[C@H](NC(=O)CC[C@H](NC(=O)CCCCCCCCCCCCCCC(=O)O)C(=O)O)C(=O)O)C(=O)O)C(=O)N[C@@H](Cc1c[nH]c2ccccc12)C(=O)N[C@@H](CC(C)C)C(=O)N[C@@H](CC(C)C)C(=O)N[C@@H](CO)C(=O)N[C@H](C(=O)O)[C@@H](C)O)C(C)C [Example 91, N^ε24-[(4S)-4-carboxy-4-[[(4S)-4-carboxy-4-[[(4S)-4-carboxy-4-(15-carboxypentadecanoylamino)butanoyl]amino]butanoyl]amino]butanoyl]-[Arg12,Leu16,Lys24,Leu27,Ser28]-Glucagon] (H-HSQGTFTSDYSRYLDLRRAQDFVK([γGlu-γGlu-γGlu-C16 diacid])WLLST-OH)	0.027 nM
CC(C)C[C@H](NC(=O)[C@H](Cc1c[nH]c2ccccc12)NC(=O)[C@H](CCCCNC(=O)CC[C@H](NC(=O)CC[C@H](NC(=O)COCCOCCNC(=O)COCCOCCNC(=O)CC[C@H](NC(=O)CCCCCCCCCCCCCCC(=O)O)C(=O)O)C(=O)O)C(=O)O)NC(=O)[C@@H](NC(=O)[C@H](Cc1ccccc1)NC(=O)[C@H](CC(=O)O)NC(=O)[C@H](CCC(N)=O)NC(=O)[C@H](C)NC(=O)[C@H](CCCNC(=N)N)NC(=O)[C@H](CCCNC(=N)N)NC(=O)[C@@H](NC(=O)[C@H](CC(=O)O)NC(=O)[C@H](CC(C)C)NC(=O)[C@H](Cc1ccc(O)cc1)NC(=O)[C@H](CCCNC(=N)N)NC(=O)[C@H](CO)NC(=O)[C@H](Cc1ccc(O)cc1)NC(=O)[C@H](CC(=O)O)NC(=O)[C@H](CO)NC(=O)[C@@H](NC(=O)[C@H](Cc1ccccc1)NC(=O)[C@@H](NC(=O)CNC(=O)[C@H](CCC(N)=O)NC(=O)[C@H](CO)NC(=O)[C@@H](N)Cc1c[nH]cn1)[C@@H](C)O)[C@@H](C)O)C(C)C)C(C)C)C(=O)N[C@@H](CC(C)C)C(=O)N[C@@H](CO)C(=O)N[C@H](C(=O)O)[C@@H](C)O [Example 97, N^ε24-[(4S)-4-carboxy-4-[[(4S)-4-carboxy-4-[[2-[2-[2-[[2-[2-[2-[[(4S)-4-carboxy-4-(15-carboxypentadecanoylamino)butanoyl]amino]ethoxy]ethoxy]acetyl]amino]ethoxy]ethoxy]acetyl]amino]butanoyl]amino]butanoyl]-[Arg12,Val16,Lys24,Leu27,Ser28]-Glucagon] (H-HSQGTFTSDYSRYLDVRRAQDFVK([γGlu-γGlu-AEEA-AEEA-γGlu-C16 diacid])WLLST-OH; N-terminus and C-terminus assumed)	0.026 nM
